Test results taken from patent US6921824B1, “Ruthenium dimeric complexes suitable as antimetastatic and antineoplastic agents” (priority 1999, dated 2005).
Marks after values point to notes of the source that are not given here.

Tests used:
[1] = system: murine TS/A adenocarcinoma cells; assay: In vitro cytotoxicity, SRB test (protein synthesis); assay type: cell-based; details: for Antiproliferative activity (in words): SRB and MTT, up to 72 h
Experimental: In vitro cytotoxicity of complexes of the present invention on murine TS/A adenocarcinoma cells.
4×10^3 murine TS/A adenocarcinoma cells resuspended in 200 μl RPMI-1640 medium supplemented with 10% FCS (fetal calf serum), 2 mM glutamine and 50 μg/ml gentamicin sulphate, were seeded in a 96-wells plate. After 24 hours incubation at 37° C., in 5% CO2, the complexes as described in example 4 (A), in example 7 (B), in example 8 (C) and in example 10 (D), each solubilised in RPMI-1640 medium supplemented with 5% FCS, 2 mM glutamine and 50 μg/ml gentamicin sulphate, were added to the cells, each at a final concentration of 10^−4, 10^−5 and 10^−6 M. Cell viability tests were performed after 24, 48 and 72 hours of exposure to the compounds by assessing both the effect on protein synthesis and on mitochondrial activity by means of colorimetric assays, respectively the solphorodamine B test (SRB) and the MTT analysis. Each value (optical density) is the average percentage ±S.E. versus the untreated controls.
Values such as *p<0.05, **p<0.01 indicate average values statistically different from the controls. Analysis of Variance and Dunnet test were used in the comparison analysis.
The results are reported in Table 3, wherein both the effect on protein synthesis (SRB) and the mitochondrial activity (MTT) are reported for each complexes tested at different dosages after different exposure time.

[2] = LD0.05 determination, intraperitoneal treatment for 6 consecutive days (Lichtfield and Wilcoxon); assay type: in vivo; details: observation time 10 days since last dose
Experimental: The dosages corresponding to the LD0.05, calculated separately in animals of the same strain and gender and having the same body weight, was administered intraperitoneally for 6 consecutive days, according to the method of Lichtfield and Wilcoxon, and with an observation time of 10 days since last dose.

MCa mammary carcinoma = assay: Pre-surgical treatment: prevention of lung metastases formation in mice with MCa mammary carcinoma; assay type: in vivo; details: for Lung metastases Number % T/C / Lung metastases weight % T/C: Treated/Control; for Lung metastases Number mean / Lung metastases weight (mg) mean: evaluated day 29; for Body weight % var: variation day 11 to day 16 vs untreated controls; for Selectivity of action on lung metastases versus primary tumour: MCa mammary carcinoma model of the CBA mouse; for Number of lung metastases (in words) / Weight of lung metastases (in words): at two dose levels, pre-surgical treatment
Experimental: In vivo tests of the activity of the compounds according to the present invention in mice affected from MCa mammary carcinoma: prevention activity in the formation of lung metastases.
Five groups of CBA kin female mice weighing 23±3 g were inoculated with […] viable cells (as determined by the Trypan blue exclusion) of MCa mammary carcinoma in 0.05 ml Dulbecco's pH 7.4 buffered calcium and magnesium-free solution (PBS), by intramuscular injection with a sterile insulin syringe. The tumour cells were derived from donors of the same strain, injected with the same tumour cells, following the same procedures 2 weeks before. The suspension of tumour cells was prepared in PBS by mechanically mincing the tumour mass obtained from donor mice, and further removing tissue debris and cells by, respectively, filtration through a double layer of sterile gauze and centrifugation at 250× g for 10 minutes. Kin animals were obtained from a colony from Chester Beatthy from London (UK) which were grown in the University of Trieste animal house accordingly to the procedures accepted for the rearing of kin animals. The MCa mammary carcinoma tumour cell-line derived from a stock, stored in liquid nitrogen, of tumour cells obtained originally from Rudjer Boskovic Institute of Zagreb (HR).
From day 11 to day 16, after tumour cells implantation, five mice groups were treated intraperitoneally with a sterile insulin syringe, respectively with: • Group 1 Control (10 animals): 10 ml/kg of body weight/day of sterile and pyrogen-free physiological solution; • Group 2 (two subgroups a,b of five animals each): 7.5 (a), 15 (b) mg/kg of body weight/day of the compound prepared as described in Example 4 in sterile and pyrogen-free physiological solution; • Group 3 (2 subgroups c,d of five animals each): 15 (c), 30 (d) mg/kg of body weight/day of the compound prepared as described in Example 7 in sterile and pyrogen-free physiological solution; • Group 4 (2 subgroups e,f of 5 animals each): 25 (e), 50 (f) mg/kg of body weight/day of the compound prepared as described in Example 8 in sterile and pyrogen-free physiological solution; • Group 5 (2 subgroups g,h of 5 animals each): 12.5 (g), 25 (h) mg/kg of body weight/day of the compound prepared as described in Example 10 in sterile and pyrogen-free physiological solution.
The administered dosages were either approximated to LD0.1, or to half of it or to a quarter of it, as calculated separately in animals of the same strain and gender and with the same body weight, for an intraperitoneal treatment lasting 6 consecutive days, according to the method of Lichtfield and Wilcoxon, and with an observation time of 10 days since the last dose.
On day 17 since tumour cells implantation, the primary tumour was surgically removed, after general anesthesia of the animals by intraperitoneal injection of 125 mg/kg of Ketamine.
On day 29 since tumour cells implantation, the mice were sacrificed by cervical dislocation for the evaluation of lung metastases. The lungs were abducted from the animals immediately after sacrifice, divided in single lobes which then examined immediately with a low-magnification microscope equipped with a graduated ocular-grid for the measurement of the size of the metastases in which the a and b orthogonal axes (a≦b) were identified. Metastases were classified by size and the metastatic tumour weight for each animal was calculated as the sum of each single metastasis weight, each of them considered as a rotation solid developed around the above mentioned axes and calculated according to the formula (π/6)·a^2·b. The experimental data obtained were then processed by appropriate statistical tests. […]

[3] = 7.5 mg/kg/die i.p. day 11-16, pre-surgical
[4] = 15 mg/kg/die i.p. day 11-16, pre-surgical
[5] = 30 mg/kg/die i.p. day 11-16, pre-surgical
[6] = 12.5 mg/kg/die i.p. day 11-16, pre-surgical
[7] = 25 mg/kg/die i.p. day 11-16, pre-surgical
[8] = 50 mg/kg/die i.p. day 11-16, pre-surgical

Compound | SRB optical density, average percentage ±S.E. versus untreated controls ([1]; 10^−4 M, exposure time 24 h) | SRB optical density, average percentage ±S.E. versus untreated controls ([1]; 10^−4 M, exposure time 48 h) | SRB optical density, average percentage ±S.E. versus untreated controls ([1]; 10^−4 M, exposure time 72 h) | SRB optical density, average percentage ±S.E. versus untreated controls ([1]; 10^−5 M, exposure time 24 h) [%] | SRB optical density, average percentage ±S.E. versus untreated controls ([1]; 10^−5 M, exposure time 48 h) [%] | SRB optical density, average percentage ±S.E. versus untreated controls ([1]; 10^−5 M, exposure time 72 h) [%] | SRB optical density, average percentage ±S.E. versus untreated controls ([1]; 10^−6 M, exposure time 24 h) [%] | SRB optical density, average percentage ±S.E. versus untreated controls ([1]; 10^−6 M, exposure time 48 h) [%] | SRB optical density, average percentage ±S.E. versus untreated controls ([1]; 10^−6 M, exposure time 72 h) [%] | Antiproliferative activity (in words) [1] | LD0.05 [2] | Lung metastases Number % T/C (MCa mammary carcinoma; [4]) [%] | Lung metastases weight % T/C (MCa mammary carcinoma; [4]) [%] | Lung metastases Number mean (MCa mammary carcinoma; [4]) | Lung metastases weight (mg) mean (MCa mammary carcinoma; [4]) [mg] | Body weight % var (MCa mammary carcinoma; 15 mg/kg/die i.p. day 11-16) [%] | Selectivity of action on lung metastases versus primary tumour (MCa mammary carcinoma) | Number of lung metastases (in words) (MCa mammary carcinoma) | Weight of lung metastases (in words) (MCa mammary carcinoma) | Lung metastases Number % T/C (MCa mammary carcinoma; [7]) [%] | further results
C[SH](C)(=O)[Ru-]([Cl])([Cl])([Cl])([Cl])[n+]1cc[n+]([Ru-]([Cl])([Cl])([Cl])([Cl])[SH](C)(C)=O)cc1.[Na+].[Na+] [Example 4, [Na]2[trans-RuCl4(Me2SO)]2(μ-pyz)] | 32 ± 1** % | 51 ± 2** % | 66 ± 2** % | 99 ± 5 | 95 ± 1 | 95 ± 2 | 112 ± 3 | 102 ± 5 | 107 ± 2 | scarce and reversible | 28 mg/kg of body weight/day | 4 | 0 | 2.0 | 0.2 | −3.3 | act selectively on lung metastases | marked reduction | even more marked reduction |  | Lung metastases Number % T/C (MCa mammary carcinoma; [3]): 27%; Lung metastases weight % T/C (MCa mammary carcinoma; [3]): 10%; Lung metastases Number mean (MCa mammary carcinoma; [3]): 14.0; Lung metastases weight (mg) mean (MCa mammary carcinoma; [3]): 8 mg; Body weight % var (MCa mammary carcinoma; 7.5 mg/kg/die i.p. day 11-16): −4.6%
C[SH](C)(=O)[Ru-]([Cl])([Cl])([Cl])([Cl])[n+]1ccc[n+]([Ru-]([Cl])([Cl])([Cl])([Cl])[SH](C)(C)=O)c1.[Na+].[Na+] [Example 7, [Na]2[trans-RuCl4(Me2SO)]2(μ-pym)] | 58 ± 2** % | 73 ± 8* % | 61 ± 2** % | 95 ± 9 | 108 ± 5 | 100 ± 1 | 101 ± 9 | 100 ± 3 | 95 ± 7 |  | 28 mg/kg of body weight/day | 10 | 2 | 5.0 | 1.7 | −1.4 | act selectively on lung metastases | marked reduction | even more marked reduction |  | Lung metastases Number % T/C (MCa mammary carcinoma; [5]): 6%; Lung metastases weight % T/C (MCa mammary carcinoma; [5]): 1%; Lung metastases Number mean (MCa mammary carcinoma; [5]): 3.0; Lung metastases weight (mg) mean (MCa mammary carcinoma; [5]): 0.8 mg; Body weight % var (MCa mammary carcinoma; 30 mg/kg/die i.p. day 11-16): −2.7%
C[SH](C)(=O)[Ru-]([Cl])([Cl])([Cl])([Cl])[n+]1ccc(CCc2cc[n+]([Ru-]([Cl])([Cl])([Cl])([Cl])[SH](C)(C)=O)cc2)cc1.[Na+].[Na+] [Example 10, [Na]2[trans-RuCl4(Me2SO)]2(μ-etbipy)] | 47 ± 2** % | 62 ± 14** % | 73 ± 2** % | 81 ± 8 | 94 ± 3 | 95 ± 1 | 102 ± 9 | 81 ± 5 | 93 ± 5 |  | 52 mg/kg of body weight/day |  |  |  |  |  | act selectively on lung metastases | marked reduction | even more marked reduction | 25 | Lung metastases Number % T/C (MCa mammary carcinoma; [6]): 15%; Lung metastases weight % T/C (MCa mammary carcinoma; [6]): 6%; Lung metastases Number mean (MCa mammary carcinoma; [6]): 8.0; Lung metastases weight (mg) mean (MCa mammary carcinoma; [6]): 4.6 mg; Body weight % var (MCa mammary carcinoma; 12.5 mg/kg/die i.p. day 11-16): −2.8%; Lung metastases weight % T/C (MCa mammary carcinoma; [7]): 1%; Lung metastases Number mean (MCa mammary carcinoma; [7]): 13.0; Lung metastases weight (mg) mean (MCa mammary carcinoma; [7]): 1.2 mg; Body weight % var (MCa mammary carcinoma; 25 mg/kg/die i.p. day 11-16): −1.1%
[Na]2[trans-RuCl4(Me2SO)]2(μ-bipy) [Example 8] | 16 ± 1** % | 49 ± 6** % | 78 ± 5** % | 102 ± 9 | 86 ± 9 | 88 ± 7 | 77 ± 6 | 92 ± 8 | 95 ± 2 | scarce and reversible | 51 mg/kg of body weight/day |  |  |  |  |  | act selectively on lung metastases |  |  | 213 | Lung metastases weight % T/C (MCa mammary carcinoma; [7]): 144%; Lung metastases Number mean (MCa mammary carcinoma; [7]): 111; Lung metastases weight (mg) mean (MCa mammary carcinoma; [7]): 119 mg; Body weight % var (MCa mammary carcinoma; 25 mg/kg/die i.p. day 11-16): −3.4%; Lung metastases Number % T/C (MCa mammary carcinoma; [8]): 15%; Lung metastases weight % T/C (MCa mammary carcinoma; [8]): 4%; Lung metastases Number mean (MCa mammary carcinoma; [8]): 8.0; Lung metastases weight (mg) mean (MCa mammary carcinoma; [8]): 3.1 mg; Body weight % var (MCa mammary carcinoma; 50 mg/kg/die i.p. day 11-16): −1.7%
